Test results from the supplement of paper PMC13380429.

What was measured:
Settings in all cases: 72 h
Calu-3 [1] = assay: drug sensitivity score (DSS) for viability; higher = more toxic; extreme values may be limits of the assay
HepG2 [2] = assay: as above
Caco-2 [3] = assay: as above
Vero E6 [4] = assay: as above
Calu-3 [5] = assay: cell viability relative to DMSO; higher = less toxic
HepG2 [6] = assay: as above
Caco-2 [7] = assay: as above
Vero E6 [8] = assay: as above
Calu-3 [9] = assay: relative viability EC50 (midpoint between 100% and the lowest measured viability); higher = less toxic
HepG2 [10] = assay: as above
Caco-2 [11] = assay: as above
Vero E6 [12] = assay: as above
U2OS [13] = assay: drug sensitivity score (DSS) for viability; higher = more toxic; extreme values may be limits of the assay
U2OS [14] = assay: cell viability relative to DMSO; higher = less toxic
U2OS [15] = assay: relative viability EC50 (midpoint between 100% and the lowest measured viability); higher = less toxic

Structure (SMILES)	drug sensitivity score (Calu-3 [1])	drug sensitivity score (HepG2 [2])	drug sensitivity score (Caco-2 [3])	drug sensitivity score (Vero E6 [4])	cell viability (Calu-3 [5]; 1 nM)	cell viability (Calu-3 [5]; 10 nM)	cell viability (Calu-3 [5]; 100 nM)	cell viability (Calu-3 [5]; 1000 nM)	cell viability (Calu-3 [5]; 10000 nM)	cell viability (HepG2 [6]; 1 nM)	cell viability (HepG2 [6]; 10 nM)	cell viability (HepG2 [6]; 100 nM)	cell viability (HepG2 [6]; 1000 nM)	cell viability (HepG2 [6]; 10000 nM)	cell viability (Caco-2 [7]; 1 nM)	cell viability (Caco-2 [7]; 10 nM)	cell viability (Caco-2 [7]; 100 nM)	cell viability (Caco-2 [7]; 1000 nM)	cell viability (Caco-2 [7]; 10000 nM)	cell viability (Vero E6 [8]; 1 nM)	cell viability (Vero E6 [8]; 10 nM)	cell viability (Vero E6 [8]; 100 nM)	cell viability (Vero E6 [8]; 1000 nM)	cell viability (Vero E6 [8]; 10000 nM)	relative viability EC50 (Calu-3 [9])	relative viability EC50 (HepG2 [10])	relative viability EC50 (Caco-2 [11])	relative viability EC50 (Vero E6 [12])	drug sensitivity score (U2OS [13])	cell viability (U2OS [14]; 1 nM)	cell viability (U2OS [14]; 10 nM)	cell viability (U2OS [14]; 100 nM)	cell viability (U2OS [14]; 1000 nM)	cell viability (U2OS [14]; 10000 nM)	relative viability EC50 (U2OS [15])
CNc1ncnc2c1ncn2[C@@H]1O[C@H](CO)[C@@H](O)[C@H]1O [N6-methyladenosine]	0.7	0.3	0	0	110%	89.5%	102%	92%	86%	105%	108%	101%	104%	81.2%	109%	112%	98.5%	110%	106%	99.8%	103%	102%	98.7%	102%	> 10 µM	> 10 µM	> 10 µM	> 10 µM							
O=c1[nH]c2ccc(Cl)cc2c(N[C@@H]2CN3CCC2CC3)c1-c1nc2ccccc2[nH]1 [CHIR-124]	2.4	12.7	7	8.6	92.3%	91.8%	105%	97.3%	59.9%	103%	99.3%	101%	36.7%	3.1%	103%	96.9%	111%	66.9%	44%	105%	103%	105%	77.6%	6.6%		0.777 µM	0.869 µM	1.59 µM	18	94.1%	96.9%	95.3%	4.5%	0.8%	0.307 µM
Clc1cccc(/C=N/N=C/c2cccc(Cl)c2)c1 [3,3'-dichlorobenzaldazine]	0	0.3	0	0	107%	93.9%	96.7%	97.5%	96.1%	94.8%	95.6%	101%	100%	84.5%	103%	99.1%	105%	94.7%	103%	99.6%	103%	99.5%	98.9%	99.5%	> 10 µM	> 10 µM	> 10 µM	> 10 µM							
COC(=O)c1ccccc1O [methyl-salicylate]		0	0	0						112%	101%	102%	90.9%	102%	103%	99.4%	101%	81%	101%	110%	104%	102%	102%	97.3%		> 10 µM	> 10 µM	> 10 µM	0	98.4%	97.2%	101%	101%	102%	> 10 µM
Cn1cc(-c2[nH]c3cc(NC(=O)[C@H](N)C4CCCCC4)cc4c3c2C=NNC4=O)cn1	6.5	10.3	3.7	0.6	109%	98.7%	114%	66.7%	51.2%	97.3%	103%	91.5%	50.9%	30.7%	106%	98.2%	97.8%	104%	25.9%	95.4%	99.4%	98.3%	95.3%	84.5%		0.493 µM	3.48 µM	> 10 µM	17.1	99.9%	98.4%	96.3%	8.5%	4.2%	0.324 µM
COC(=O)Nc1nc2cc([S+]([O-])c3ccccc3)ccc2[nH]1 (stereo not given) [oxfendazole]		1.2	0	0						90.6%	92.5%	98.2%	98.1%	75.3%	97%	108%	104%	94.7%	97.5%	101%	106%	100%	104%	90.6%		> 10 µM	> 10 µM	> 10 µM	0	101%	96.6%	103%	98.1%	103%	> 10 µM
C[C@@H]1COCCN1c1cc(C2([S@](C)(=N)=O)CC2)nc(-c2ccnc3[nH]ccc23)n1 [AZD6738]	3.9	7.6	3.1	1.3	92.8%	96%	108%	92.7%	50.2%	94.5%	88.6%	104%	67.7%	35.6%	92.8%	100%	103%	96.7%	49.8%	98.8%	94.5%	92.1%	90.9%	78.5%		0.998 µM	2.65 µM	> 10 µM	5.1	94.1%	101%	100%	96.8%	16.8%	2.88 µM
O=c1onc2cnc3ccccc3n12 [ODQ]		0	0	0						105%	110%	100%	110%	94.3%	91.3%	96%	95.2%	89.9%	112%	97.9%	96.4%	97.6%	108%	105%		> 10 µM	> 10 µM	> 10 µM							
